Laboratory results: ChEMBL document CHEMBL6121019, “Design, synthesis and biological evaluation of bisnoralcohol derivatives as novel IRF4 inhibitors for the treatment of multiple myeloma” (Eur J Med Chem, 2025)
Activity calls are given as the source filed them. The rule behind the calls is not given here.

Key:
[1] = Toxicity in Balb/C nude mouse assessed as change in body weight at 25 mg/kg administered once daily and measured every three days for 34 days; assay type: organism-based; details: in vivo, 816 h, time 34 day
NCI-H929 [2] = assay: Antitumor activity against human NCI-H929 cells xenografted in Balb/C nude mouse model assessed as increase in gammaH2AX expression at 25 mg/kg by Western blot analysis; assay type: functional, organism-based
NCI-H929 [3] = assay: Antitumor activity against human NCI-H929 cells xenografted in Balb/C nude mouse model assessed as inhibition of Akt phosphorylation level at 25 mg/kg by Western blot analysis; assay type: functional, organism-based
[4] = Antiproliferative activity against human MM1.R cells assessed as inhibition of cell viability measured after 72 hrs by MTS assay; assay type: functional, cell-based; details: MM.1R
RPMI-8226 = assay: Antiproliferative activity against human RPMI-8226 cells assessed as inhibition of cell viability measured after 72 hrs by MTS assay; assay type: functional, cell-based; details: RPMI-8226, 72 h
NCI-H929 [5] = assay: Antitumor activity against human NCI-H929 cells xenografted in Balb/C nude mouse model assessed as reduction in Ki67 expression at 25 mg/kg by immunohistochemical staining based analysis; assay type: functional, organism-based
[6] = Antiproliferative activity against human HaCaT cells assessed as inhibition of cell viability measured after 72 hrs by MTS assay; assay type: toxicity, cell-based
[7] = Antiproliferative activity against human HAF cells assessed as inhibition of cell viability measured after 72 hrs by MTS assay; assay type: toxicity, cell-based
NCI-H929 [8] = assay: Antitumor activity against human NCI-H929 cells xenografted in Balb/C nude mouse model assessed as inhibition of inhibition of cyclin D1 expression at 25 mg/kg by Western blot analysis; assay type: functional, organism-based
NCI-H929 [9] = assay: Antiproliferative activity against human NCI-H929 cells assessed as inhibition of cell viability measured after 72 hrs by MTS assay; assay type: functional, cell-based; details: NCI-H929, 72 h
[10] = Toxicity in Balb/C nude mouse assessed as side effects at 25 mg/kg administered once daily and measured every three days for 34 days by H and E staining based analysis; assay type: organism-based; details: in vivo, 816 h, time 34 day
[11] = Toxicity in Balb/C nude mouse assessed as changes in main organ at 25 mg/kg administered once daily and measured every three days for 34 days by H and E staining based analysis; assay type: organism-based; details: in vivo, 816 h, time 34 day
NCI-H929 [12] = assay: Antitumor activity against human NCI-H929 cells xenografted in Balb/C nude mouse model assessed as inhibition of ERK phosphorylation level at 25 mg/kg by Western blot analysis; assay type: functional, organism-based
NCI-H929 [13] = assay: Antitumor activity against human NCI-H929 cells xenografted in Balb/C nude mouse model assessed as inhibition of […] expression at 25 mg/kg by Western blot analysis; assay type: functional, organism-based
[14] = biological target: T1, Interferon regulatory factor 4 (Homo sapiens, UniProt Q15306); assay: Inhibition of IRF4 (unknown origin) incubated for 1 hr by fluorescence polarization assay
T1 sequence (Q15306 whole entry): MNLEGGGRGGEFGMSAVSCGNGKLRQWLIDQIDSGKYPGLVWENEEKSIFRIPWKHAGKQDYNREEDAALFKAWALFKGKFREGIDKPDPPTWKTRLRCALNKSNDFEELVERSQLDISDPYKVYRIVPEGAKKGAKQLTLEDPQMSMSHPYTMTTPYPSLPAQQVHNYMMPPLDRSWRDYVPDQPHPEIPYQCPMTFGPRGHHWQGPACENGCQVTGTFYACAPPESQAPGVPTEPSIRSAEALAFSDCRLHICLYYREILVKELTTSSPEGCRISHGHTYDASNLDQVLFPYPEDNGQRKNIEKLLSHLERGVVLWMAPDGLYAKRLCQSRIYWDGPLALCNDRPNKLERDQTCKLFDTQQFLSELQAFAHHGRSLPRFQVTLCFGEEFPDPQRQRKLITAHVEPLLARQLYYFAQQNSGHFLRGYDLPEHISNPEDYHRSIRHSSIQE

[15] = Selectivity ratio IC50 for human RPMI-8226 cells to IC50 for human MM1.R cells; assay type: toxicity
[16] = Selectivity ratio IC50 for human RPMI-8226 cells to IC50 for human NCI-H929 cells; assay type: toxicity

IC50 (RPMI-8226) [µM] | IC50 (NCI-H929 [9]) [µM] | IC50 [14] [µM] | Compound | Activity [1] | Activity (NCI-H929 [2]) | Activity (NCI-H929 [3]) | IC50 [4] [µM] | Activity (NCI-H929 [5]) | IC50 at 72 h [6] [µM] | IC50 at 72 h [7] [µM] | Activity (NCI-H929 [8]) | Activity [10] | Activity [11] | Activity (NCI-H929 [12]) | Activity (NCI-H929 [13]) | Ratio IC50 [15] | Ratio IC50 [16]
50.2 | 2.39 | > 20 | Nc1cccc2c1CN(C1CCC(=O)NC1=O)C2=O (stereo unspecified) [LENALIDOMIDE] | Non-toxic | Active | Active | 4.52 | inactive | > 100 | > 100 | Active | Non-toxic | Non-toxic | Active | Active |  | 
7.65 | 2.57 | 3.88 | C[C@H](C(=O)n1ccnc1)[C@H]1CC[C@H]2[C@@H]3C(=O)C=C4C(C)(C)C(=O)C(C#N)=C[C@]4(C)[C@H]3CC[C@]12C |  |  |  | 4.46 |  | > 100 | > 100 |  |  |  |  |  | 1.7 | 3
2.45 | 0.49 | 3.52 | C[C@H](C(=O)Nc1ccc(O)cc1)[C@H]1CC[C@H]2[C@@H]3C(=O)C=C4C(C)(C)C(=O)C(C#N)=C[C@]4(C)[C@H]3CC[C@]12C |  |  |  | 0.57 |  | > 100 | > 100 |  |  |  |  |  | 4.3 | 5
